Test results reported in paper doi:10.1101/2022.11.01.514793v1 (biorxiv, 2022).

Biological target: T1, AdgB (Variovorax paradoxus, UniProt T1X8R6)
T1 sequence (T1X8R6 28-388 limits assumed): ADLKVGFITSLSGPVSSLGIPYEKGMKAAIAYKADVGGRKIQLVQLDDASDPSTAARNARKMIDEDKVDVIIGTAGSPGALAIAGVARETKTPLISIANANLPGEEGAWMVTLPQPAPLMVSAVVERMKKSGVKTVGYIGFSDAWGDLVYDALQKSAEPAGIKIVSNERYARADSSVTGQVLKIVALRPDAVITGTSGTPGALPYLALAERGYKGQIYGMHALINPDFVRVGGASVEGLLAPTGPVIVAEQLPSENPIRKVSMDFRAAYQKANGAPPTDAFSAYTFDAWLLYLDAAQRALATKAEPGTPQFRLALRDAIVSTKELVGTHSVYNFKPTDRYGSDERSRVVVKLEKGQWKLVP
Experiment: isothermal titration calorimetry
Assay type: binding

Question: `O=C(O)Cc1c[nH]c2cccc(Cl)c12` [4-Cl-IAA] was tested. Which Kd did it give?
Answer: 8.4 µM

Question: Which Kd does the source give for `O=C(O)CCCc1c[nH]c2ccccc12` [IBA] here?
Answer: 25 µM

Question: `O=C(O)CCc1c[nH]c2ccccc12` [IPA] was tested. Which Kd did it give?
Answer: 1.6 µM

Question: How did the Kd turn out when `O=C(O)Cc1cccc2ccccc12` [NAA] was run?
Answer: 20 µM
